According to US10578610B2, “Peptide regulators of mitochondrial fusion and methods of use” (priority 2016, dated 2020):
Ends that are not written are not given here.

Key:
Opa1 and Drp1 = test: Immunoblot analysis of mitochondrial dynamics proteins in MEFs; type: cell-based, murine; settings: immunoblot 4 hours after application to MEFs; data not shown
Mfn1/Mfn2 DKO MEFs = test: Confocal localization of FITC-labeled TAT-minipeptides in mitofusin null cells; type: cell-based, murine; settings: MEFs completely lacking mitofusins
Method: The above results support the premise that TAT-conjugated Mfn2 minipeptides affect mitochondrial fusion by modulating Mfn1 and Mfn2 conformation according to the dynamic structure model depicted in FIGS. 3A-3C. Additional studies were performed to validate this mechanism of action using the minipeptide-Mfn2 binding assay procedure. Confocal localization of FITC-labeled TAT-minipeptides in WT MEFs and Mfn null MEFs (Mfn1/Mfn2 DKO) was used for analysis of interaction between the minipeptides and mitochondrial mitofusins. Mitochondria were stained with MitoTracker Orange; nucleus was stained with Blue Hoechst. Line-scans were generated for the confocal photographs.
Thus, cell-internalized TAT-conjugated Mfn2 HR1 minipeptides bind specifically to mitochondrial mitofusins.

[1] = system: cultured rat motor neurons infected with adeno-Mfn2 K109A; test: Motor neurons infected with adeno-Mfn2 K109A; type: cell-based; settings: 1 μM for 24 hours vs TAT control
Method: The efficacy of TAT-367-384Gly to correct mitochondrial pathology induced by a GTPase-defective Mfn2 mutant was examined in the CMT2A-relevant cell type, motor neurons. Motor neurons were isolated from E17 Sprague-Dawley rats and cultured as described in Wang et al., 2013, Hum Mol Genet 22:4706-4719. After 10 days in culture, neurons were infected twice, 8 hours apart, with 50 MOI of adenoviral WT-Mfn2 or K109A Mfn2 and treated with 1 μM TAT-367-384 Gly or control TAT peptide for 24 hours. Mitochondria of formalin-fixed nerons were labeled with anti-TOM20 (Santa Cruz Biotechnology). Neurons were stained with Hoechst 33342. Laser confocal imaging using a 63× oil objective was used to identify isolated mitochondria for determination of aspect ratio.
Representative anti-TOM20/Hoechst images of formalin-fixed cultured neurons infected with adeno-Mfn2K109A (FIG. 15A) or adeno-WT Mfn2 (FIG. 15B) and treated for 24 h with 1 μM TAT control (Ctrl) or TAT-367-384Gly minipeptide. Scale bars are 10 microns. N=20-23 per treatment group; *=P<0.05 vs Ctrl (Student's t-test).

[2] = system: hippocampal and cortical neurons carrying Mfn2 T105M fl/st; test: Hippocampal and cortical neurons with induced Mfn2 T105M; type: cell-based, mouse; settings: Mfn2 T105M induced by adeno-Cre; 1 μM for 24 hours
Method: Finally, to test the efficacy of fusion promotion by conformational manipulation in a model of a naturally-occurring human CMT2A mutation, hippocampal and cortical neurons were cultured from mouse pups carrying the conditional Mfn2 T105M fl/st expression allele.
Hippocampal and cortical neurons were prepared from individual P0-P1 mouse pups using a modification of methods described for rat neuronal culture (Mennerick et al., 1995, J Neurophysiol, 73:320-332). Mouse pups were genotyped after the fact to determine presence or absence of the MFN2*T105M transgene; neurons derived from mice lacking the transgene were designated as normal controls. […] Immunoblot of Mfn2 expression in T105M fl/st cortical neurons 72 h after adeno-Cre or adeno-β-gal (Ctrl) is shown in FIG. 16B with quantitative data to the right (n=4). […]
Merged live confocal images of cultured neurons without (no Cre) and with (+Cre) Mfn2 T105M induction, and in Mfn2 T105M-induced neurons 24 h after addition of 1 μM TAT-367-384Gly are shown in FIG. 16C. […] Quantitative data are provided in FIG. 16E; each point is result from one of 3 independently-established Mfn2 T105M neuronal cultures, each with 3 biological replicates of ˜20 neurons. *=P<0.01 vs no Cre; #=P<0.01 vs T105M+Cre.

human Mfn2 = molecular target: T1, human Mfn2 (Homo sapiens, UniProt O95140); test: Carboxypeptidase protection assay on mitochondrial membranes; type: biochemical; parameters: from tissue; host or cells: mitochondrial membranes of transgenic mouse hearts overexpressing human Mfn2; settings: 200 ng/ml carboxypeptidases A and B; mouse heart mitochondrial membranes overexpressing human Mfn2
T1 sequence (O95140 1-757): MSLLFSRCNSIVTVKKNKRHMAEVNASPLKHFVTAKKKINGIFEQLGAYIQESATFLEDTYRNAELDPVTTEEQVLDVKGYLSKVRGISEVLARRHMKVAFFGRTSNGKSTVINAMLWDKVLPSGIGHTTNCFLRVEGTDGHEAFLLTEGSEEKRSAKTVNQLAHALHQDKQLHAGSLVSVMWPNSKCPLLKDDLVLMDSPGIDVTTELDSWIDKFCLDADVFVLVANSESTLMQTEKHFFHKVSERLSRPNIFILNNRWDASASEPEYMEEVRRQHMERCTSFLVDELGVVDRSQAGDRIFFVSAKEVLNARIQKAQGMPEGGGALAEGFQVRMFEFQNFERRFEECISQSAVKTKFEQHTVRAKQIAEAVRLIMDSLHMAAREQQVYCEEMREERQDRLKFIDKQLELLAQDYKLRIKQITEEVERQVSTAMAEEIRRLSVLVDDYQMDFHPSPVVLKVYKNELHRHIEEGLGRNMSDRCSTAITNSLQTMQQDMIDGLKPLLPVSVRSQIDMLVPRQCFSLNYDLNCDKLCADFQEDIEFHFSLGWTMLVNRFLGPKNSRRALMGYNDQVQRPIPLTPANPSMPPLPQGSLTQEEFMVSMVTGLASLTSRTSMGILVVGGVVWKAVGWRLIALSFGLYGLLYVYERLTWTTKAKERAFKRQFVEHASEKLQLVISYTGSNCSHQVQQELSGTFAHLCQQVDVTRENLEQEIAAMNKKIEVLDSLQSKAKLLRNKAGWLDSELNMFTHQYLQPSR
Method: Mitochondrial membranes were prepared (Song et al., 2015, Cell Metab, 21:273-285) from mouse hearts overexpressing human Mfn2 (Gong et al., 2015, Science, 350:aad2459) and digested with 200 ng/ml each carboxypeptidases A and B (Sigma-Aldrich) for increasing times at room temperature, followed by immunoblotting using an antibody (Abcam ab56889) specific to hMfn2 HR2.

Sequence: QIAEAVRGIMDSLHMAARGGYGRKKRRQRRR [TAT-367-384Gly]
- abundance of Opa1 and Drp1 (Opa1 and Drp1): without altering Mfn2 GTPase activity or influencing the abundance
- localization of FITC-labeled TAT-peptide to mitochondria (Mfn1/Mfn2 DKO MEFs): not to MEFs completely lacking mitofusins
- mitochondrial fragmentation (aspect ratio) [1]: fully normalized
- neuronal mitochondrial dysmorphology with fragmentation, partial depolarization and clumping [2]: largely reversed these abnormalities
- carboxyl terminal-directed proteolytic digestion of Mfn2 (exposure of C-terminal HR2 domain) (human Mfn2): accelerated carboxyl terminal-directed proteolytic digestion of Mfn2

Sequence: QDRLKFIDKQGELLAQDYKLRGGYGRKKRRQRRR [TAT-398-418Gly]
- abundance of Opa1 and Drp1 (Opa1 and Drp1): without altering Mfn2 GTPase activity or influencing the abundance
- localization of FITC-labeled TAT-peptide to mitochondria (Mfn1/Mfn2 DKO MEFs): not to MEFs completely lacking mitofusins
- carboxyl terminal-directed proteolytic digestion of Mfn2 (exposure of C-terminal HR2 domain) (human Mfn2): had the opposite effect
